In one assay the target is RBM39 (Homo sapiens (Human), UniProt Q14498+Q66K64). In words: Western blot assay for degradation of RBM39 in HCT116 cells. Format: cell-based. Conditions: Incubation Time: 4 hours, read-out: RBM39 Degradation: IC50 (uM) [Incubation Time: 4 hours]. The method, then: Example 9: Western Blot Assay Procedure for Assessing Degradation of RBM39 in HCT116 Cells
HCT116 cells were used with passage numbers ranging from 13 to 25. Cells were seeded in 12-well plated at a density of 1 million cells per well in 1 mL cell culture medium containing McCoy's 5A medium (Cat. #16600082, ThermoFisher, Waltham, MA), 10% Fetal Bovine Serum (Cat. #26140, ThermoFisher, Waltham, MA) and 1% Pen-Strep (Cat. #. 15070063, ThermoFisher, Waltham, MA) and incubated overnight. The next morning, compounds were serially diluted (1:3, 9 points) in the medium separately and were prepared 2× the final assay concentration. Subsequently, 1.0 mL medium containing DMSO or the appropriate concentration of each compound was added to respective wells. The final DMSO concentration in each well was 0.1%. […] Cells were then washed once with 1 mL of ice cold Dulbecco's phosphate-buffered saline (Cat. #28374, ThermoFisher, Waltham, MA) and then lysed with 100 μl of lysis buffer containing 1×RIPA (Cat. #. 89900, ThermoFisher, Waltham, MA) and HALT protease and phosphatase inhibitor (Cat. #78442, ThermoFisher, Waltham, MA) on ice for 10 minutes with intermittent rocking. Lysates were then sonicated in a sonication bath (3 pulses of 10 sec each with 1 min incubation on ice between each pulse). Samples were then centrifuged for 20 min at 14,000 rpm for 20 min. Supernatants were then transferred to fresh microfuge tubes and stored frozen at −80° C. until use. Total protein quantitation in lysate samples was done using the BCA protein quantitation kit following the manufacturer's instructions. […] Band intensity in images was quantified using the Image Studio Lite software (Version 5.2). Signal intensity for RBM-39 specific bands were normalized using the signal intensity for […] band, and percent degradation was assessed by comparing RBM39 signal in compound-treated vs. DMSO-treated samples.
(In general: In western blotting, separated proteins are transferred to a membrane and probed.)

Another assay has as its target DCAF15/RBM39 (Homo sapiens (Human), UniProt Q14498+Q66K64). In words: AlphaLISA compound-induced DCAF15-RBM39 ternary complex formation. It counts as binding. Conditions: His-tagged DCAF15 complex and biotin-carrying RBM39. Here is the method: Example 7: Quantitative Evaluation of Compound-Induced Ternary Complex Formation Using Amplified Luminescent Proximity Homogeneous Assay
Compound-induced DCAF15-RBM39 ternary complex formation was monitored using AlphaLISA® assays (Perkin Elmer, Waltham, MA). Test compounds were first collected in a 384-well microplate (cat. #781280, Grenier Bio-One, Monroe, NC) as 2 mM stocks in 100% dimethyl sulfoxide (DMSO). These stocks were then serially diluted in DMSO by 3-fold into a new plate (cat. #781280, Grenier Bio-One, Monroe, NC) using a Mosquito HTS dispenser (Mosquito® HTS, SPT Labtech, Boston, MA). 0.2 μL of these diluted stocks were then dispensed into a 384-well Optiplate (cat. #6007290, Perkin Elmer, Waltham, MA) in duplicate wells, to assemble the final assay plate consisting of duplicated dose ranges. Separately, a protein mixture consisting of His-tagged DCAF15 complex and biotin-carrying RBM39, each at 408 nM (2.04×), was prepared in 50 mM HEPES, pH 7.5, 100 mM NaCl, 2 mM MgCl2, 0.1% BSA, 2 mM TCEP, 0.05% Tween-20 (dilution buffer). 9.8 μL of this protein mixture was then mixed with the compounds in the assay plate and incubated for one hour at room temperature. Reaction mixtures with no compounds added were included as negative controls, while a His-tagged and biotinylated GST protein was included to track general assay performance. Nickel Chelate AlphaLISA Acceptor beads (cat. #AL108M, Perkin Elmer, MA) and AlphaScreen Streptavidin Donor beads (cat. #6760002, Perkin Elmer, Waltham, MA) were prepared separately in the dilution buffer as 4× stocks (80 ug/ml). The beads were then added to the assay plate sequentially with incubation at room temperature for 1-2 hours after each addition. Signals were recorded using EnVision 2104 Multilabel Plate Reader (Perkin Elmer, Waltham, MA) and titration curves were generated in GraphPad Prism (7.00, GraphPad, La Jolla, CA).
(In general: Bead proximity is the source of the signal in Alpha formats.)

The next assay has as its target DCAF15 (Homo sapiens (Human), UniProt Q66K64). In words: HTRF competition assay, binary interaction with DCAF15. It counts as binding. As to conditions: competition with Alexa Fluor 647 tracer. The method, then: Example 8: Measurement of Binary Interaction Between Compounds and DCAF15 Using Homogeneous Time Resolved Fluorescence (HTRF)
DCAF15 interactions with test compounds were monitored using HTRF competition assays (Cisbio, Bedford, MA). Test compounds were first collected in a 384-well microplate (cat. #781280, Grenier Bio-One, Monroe, NC) as 10 mM stocks in 100% dimethyl sulfoxide (DMSO). A second stock plate (cat. #781280, Grenier Bio-One, Monroe, NC) was prepared through 3-fold serial dilution in DMSO of the afore-mentioned stocks using a Mosquito HTS dispenser (mosquito@ HTS, SPT Labtech, Boston, MA). 0.2 μL of these diluted stocks were then dispensed into a 384-well Optiplate (cat. #6007290, Perkin Elmer, Waltham, MA) in duplicate wells, to assemble the assay plate. The tracer molecule containing an Alexa Fluor 647 probe was prepared in 25 mM HEPES pH 7.5, 100 mM NaCl, 0.1 mg/ml BSA, 0.005% Tween 20, 0.5 mM TCEP (dilution buffer) to 612 nM (2.04×). Separately, His-tagged DCAF15 complex was prepared at 32 nM (4×) in the dilution buffer, and mAb Anti-6His-Eu cryptate Gold (cat. #61H12KLA, Cisbio, Bedford, MA) at 4× dilution in the detection buffer (cat. #61DB9RDF, Cisbio, Bedford, MA). These two solutions were mixed and incubated for 15 min at room temperature. 9.8 μL of the tracer solution and 10 μL of the DCAF15/mAb Anti-6His-Eu cryptate Gold mixture were added sequentially to each well in the assay plate. Reaction mixtures with no DCAF15 added were included as positive controls. The final mixture was incubated for an hour at room temperature and spun down briefly before data collection at 615 nm and 666 nm using EnVision 2104 Multilabel Plate Reader (Perkin Elmer, Bedford, MA). Binding was estimated based on ratiometric analysis and titration curves were generated in GraphPad Prism (7.00, GraphPad, La Jolla, CA).
In general terms: Time-resolved FRET reads energy transfer from a long-lived donor to a nearby acceptor.

The text below walks through data of patent publication US20240425486A1, “FUSED BICYCLIC SUBSTITUTED N-(1H-INDOL-7-YL)BENZENESULFONAMIDES AND USES THEREOF” (Triana Biomedicines, Inc., priority 2021, published 2024).

In general, EC50 refers to the concentration that produces a half-maximal response. Read a high EC50 as lower potency in that assay. A word on the IC50: it is the concentration that inhibits the measured activity by half. A high value points to lower potency.

Structures are written as SMILES. A value given as a limit tells only on which side of the number the result lay.

On to `O=S1(=O)Cc2ccc(S(=O)(=O)Nc3ccc(Cl)c4c(Cl)c[nH]c34)cc2C1` [Compound 17, N-(3,4-dichloro-1H-indol-7-yl)-1,3-dihydrobenzo[c]thiophene-5-sulfonamide 2,2-dioxide], for which, on RBM39, the DC50 is at most 1 µM. Further, the EC50 at DCAF15/RBM39 was at most 1000 nM. At DCAF15, the 50% inhibitory concentration (IC50) fell in the range of 1 to 10 µM.
Taken in the same sequence, the figures for `O=C1NCc2cc(S(=O)(=O)Nc3ccc(Cl)c4c(Cl)c[nH]c34)ccc2O1` [Compound 42, N-(3,4-dichloro-1H-indol-7-yl)-2-oxo-3,4-dihydro-2H-benzo[e][1,3]oxazine-6-sulfonamide] were at most 1 µM, at most 1000 nM and 1 to 10 µM.
With `O=C1CSc2ccc(S(=O)(=O)Nc3ccc(Cl)c4c(Cl)c[nH]c34)cc2N1` [Compound 44, N-(3,4-dichloro-1H-indol-7-yl)-3-oxo-3,4-dihydro-2H-benzo[b][1,4]thiazine-6-sulfonamide], the DC50 at RBM39 was at most 1 µM. Further, on DCAF15/RBM39, the EC50 was at most 1000 nM.
